# In US20020028836A1, “Potassium channel openers” (priority 2000, published 2002):
# Read-outs that look alike come from different tables or passages of the source.
# Tests used:
# [1] = tested on: tissue strips obtained from Landrace pig bladders; assay: Functional potassium channel opening activity in isolated bladder strips (field-stimulated twitch); conditions: for Index: ED50 for P1075 divided by ED50 for the test agonist in a given tissue, averaged; for EC50: amount of agent necessary to cause 50% of the agent's maximal response, read-out: ED50 (the source's name); for Efficacy (% P1075) / Emax: maximal efficacy relative to P1075, field stimulation 0.05 Hz, 0.5 ms, 20 volts
# Summary of the method: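 Mucosa-free female Landrace pig bladder strips in Krebs Ringer bicarbonate (pH 7.4, 37° C., 0.004 mM propranolol), 1.0 g preload, field-stimulated at 0.05 Hz, 0.5 ms, 20 V for twitch. Cumulative concentration-response curves; maximal efficacy as % of P1075, ED50 fitted, potency index = P1075 ED50/test ED50 per tissue, averaged.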
# [2] = tested on: primary cultured guinea-pig urinary bladder (GPB) cells; assay: Membrane hyperpolarization (MHP) assay, DiBAC(4)3 / FLIPR; type: cell-based; conditions: for EC50: concentration that elicits 50% of the maximal response for the test sample; for Maximal Response (% P1075) / Emax: maximal steady-state hyperpolarization, normalized to response with 10 μM P1075 (100%)
# Procedure: Compounds were evaluated for potassium channel opening activity using primary cultured guinea-pig urinary bladder (GPB) cells.
# For the preparation of urinary bladder smooth muscle cells, urinary bladders were removed from male guinea-pigs (Hartley, Charles River, Wilmington, Mass.) weighing 300-400 g and placed in ice-cold Ca^2+-free Krebs solution (Composition, mM: KCl, 2.7; KH2PO4, 1.5; NaCl, 75; Na2HPO4, 9.6; Na2HPO4.7H2O, 8; MgSO4, 2; glucose, 5; HEPES, 10; pH 7.4). Cells were isolated by enzymatic dissociation as previously described with minor modifications (Klockner, U. and Isenberg, G., Pflugers Arch. (1985), 405, 329-339), hereby incorporated by reference. The bladder was cut into small sections and incubated in 5 mL of the Kreb's solution containing I mg/mL collagenase (Sigma, St. Louis, Mo.) and 0.2 mg/mL pronase (Calbiochem, La Jolla, Calif.) with continuous stirring in a cell incubator for 30 minutes. The mixture was then centrifuged at 1300×g for 5 minutes, and the pellet resuspended in Dulbecco's PBS (GIBCO, Gaithersburg, Md.) and recentrifuged to remove residual enzyme. The cell pellet was resuspended in 5 mL growth media (composition: Dulbecco's modified Eagle's medium supplemented with 10% fetal bovine serum, 100 units/mL penicillin, 100 units/mL streptomycin and […] amphotericin B) and further dissociated by pipetting the suspension through a flame-polished Pasteur pipette and passing it through a polypropylene mesh membrane (Spectrum, Houston, Tex.). The cell density was adjusted to 100,000 cells/mL by resuspension in growth media. Cells were plated in clear-bottomed black 96-well plates (Packard) for membrane potential studies at a density of 20,000 cells/well and maintained in a cell incubator with 90% air: 10% CO2 until confluent. Cells were confirmed to be of smooth muscle type by cytoskeletal staining using a monoclonal mouse anti human-α-smooth muscle actin (Biomeda, Foster City, Calif.).
# Functional activity at potassium channels was measured by evaluating changes in membrane potential using the bis-oxonol dye DiBAC(4) (Molecular Probes) in a 96-well cell-based kinetic assay system, Fluorescent Imaging Plate Reader (FLIPR) (K. S. Schroeder et al., J. Biomed. Screen., v. 1 pp. 75-81 (1996)), hereby incorporated by reference. DiBAC(4)3 is an anionic potentiometric probe which partitions between cells and extracellular solution in a membrane potential-dependent manner. With increasing membrane potential (for example, K^+ depolarization), the probe further partitions into the cell; this is measured as an increase in fluorescence due to dye interaction with intracellular lipids and proteins. Conversely, decreasing membrane potential (hyperpolarization by potassium channel openers) evokes a decrease in fluorescence.
# Confluent guinea-pig urinary bladder cells cultured in black clear-bottomed 96-well plates were rinsed twice with […] assay buffer (composition, mM: HEPES, 20; NaCl, 120; KCl, 2; CaCl2, 2; MgCl2, 1; glucose, 5; pH 7.4 at 25° C.) containing 5 μM DiBAC(4)3 and incubated with […] of the buffer in a cell incubator for 30 minutes at 37° C. to ensure dye distribution across the membrane. After recording the baseline fluorescence for 5 minutes, the reference or test compounds, prepared at 10 times the concentration in the assay buffer, were added directly to the wells. Changes in fluorescence were monitored for an additional 25 minutes. Hyperpolarization responses were corrected for any background noise and were normalized to the response observed with 10 μM of the reference compound P1075 (assigned as 100%), a potent opener of smooth muscle KATP channels (Quast et al., Mol. Pharmacol., v. 43 pp. 474-481 (1993)), hereby incorporated by reference.
# Routinely, five concentrations of P1075 or test compounds (log or half-log dilutions) were evaluated and the maximal steady-state hyperpolarization values (expressed as % relative to P1075) plotted as a function of concentration. […]
melting point [°C],EC50 [1] [nM],EC50 [2] [nM],EC50 ([1]; Sus scrofa) [nM],EC50 ([2]; Cavia porcellus) [nM],Compound,Index [1],Efficacy (% P1075) [1] [% P1075],Maximal Response (% P1075) [2] [% P1075],Emax ([1]; Sus scrofa) [%],Emax ([2]; Cavia porcellus) [%]
195 to 196,,,,,"CC(C)(C)C(NC(=O)c1ccc(F)cc1)NC(=NC#N)Nc1cccnc1 (centres unmarked) [Example 107, N-(1-{[(cyanoimino)(3-pyridinylamino)methyl]amino}-2,2-dimethylpropyl)-4-fluorobenzamide]",,,,,
213 to 215,,,,,"CC(Cl)(Cl)C(NC(=O)c1cc(Cl)cc(Cl)c1)NC(=NS(=O)(=O)C(F)(F)F)Nc1cccnc1 (centres unmarked) [Example 190, 3,5-dichloro-N-{2,2-dichloro-1-[((3-pyridinylamino){[(trifluoromethyl)sulfonyl]imino}methyl)amino]propyl}benzamide]",,,,,
178 to 180,,,,,"CC(C)(C)C(NC(=O)c1ccc(Cl)cc1)NC(=NC#N)NCc1cccc(Cl)c1 (centres unmarked) [Example 78, 4-chloro-N-(1-{[[(3-chlorobenzyl)amino](cyanoimino)methyl]amino}-2,2-dimethylpropyl)benzamide]",,,,,
213 to 214,,,,,"CC(C)(C)C(NC(=O)c1ccc(Cl)cc1)NC(Nc1cccnc1)=C(C#N)C#N (centres unmarked) [Example 152, 4-chloro-N-(1-{[2,2-dicyano-1-(3-pyridinylamino)vinyl]amino}-2,2-dimethylpropyl)benzamide]",,,,,
173 to 175,,,,,"CC(C)(C)C(NC(=O)c1ccc(Cl)cc1)NC(=NC#N)NCc1ccc(Cl)cc1 (centres unmarked) [Example 79, 4-chloro-N-(1-{[[(4-chlorobenzyl)amino](cyanoimino)methyl]amino}-2,2-dimethylpropyl)benzamide]",,,,,
196 to 198,,,,,"CC(C)(C)C(NC(=O)c1ccc(Cl)cc1)NC(=NC#N)Nc1cc(F)ccc1F (centres unmarked) [Example 73, 4-chloro-N-(1-{[(cyanoimino)(2,5-difluoroanilino)methyl]amino}-2,2-dimethylpropyl)benzamide]",,,,,
,12000,650,,,"Cc1ccc(C(=O)NC(NC(=NC#N)Nc2cccnc2)C(C)(C)C)cc1 (single isomer, unassigned; (+)) [Example 58, (+) N-(1-{[(cyanoimino)(3-pyridinylamino)methyl]amino}-2,2-dimethylpropyl)-4-methylbenzamide]",0.008,59,87,,
,,,18000,300,"Cc1ccc(C(=O)NC(NC(=S)Nc2cccc([N+](=O)[O-])c2)C(F)(F)F)cc1 (centres unmarked) [Example 4, 4-methyl-N-(2,2,2-trifluoro-1-{[(3-nitroanilino)carbothioyl]amino}ethyl)benzamide]",0.015,,,89,133
,,,5000,220,"Cc1ccc(C(=O)NC(NC(=S)Nc2cccnc2)C(C)(C)C)cc1 (centres unmarked) [Example 22, N-(2,2-dimethyl-1-{[(3-pyridinylamino)carbothioyl]amino}propyl)-4-methylbenzamide]",0.017,,,100,100
,,,19000,510,"Cc1ccc(C(=O)NC(NC(=S)Nc2ccccc2F)C(F)(F)F)cc1 (centres unmarked) [Example 11, 4-methyl-N-(2,2,2-trifluoro-1-{[(2-fluoroanilino)carbothioyl]amino}ethyl)benzamide]",0.011,,,100,109
,,,10000,350,"Cc1ccc(C(=O)NC(NC(=S)Nc2cccc(F)c2)C(F)(F)F)cc1 (centres unmarked) [Example 13, 4-methyl-N-(2,2,2-trifluoro-1-{[(3-fluoroanilino)carbothioyl]amino}ethyl)benzamide]",0.022,,,95,91
,,,17000,80,"Cc1ccc(C(=O)NC(NC(=S)Nc2ccccc2)C(F)(F)F)cc1 (centres unmarked) [Example 9, N-{1-[(anilinocarbothioyl)amino]-2,2,2-trifluoroethyl}-4-methylbenzamide]",0.011,,,91,104
,,,12000,220,"Cc1ccc(C(=O)NC(NC(=S)Nc2cccc([N+](=O)[O-])c2)c2ccccc2)cc1 (centres unmarked) [Example 33, 4-methyl-N-[{[(3-nitroanilino)carbothioyl]amino}(phenyl)methyl]benzamide]",0.027,,,80,102
,,170,420,,"C=CCC(C)(C)C(NC(=O)c1ccc(Cl)cc1)NC(=NC#N)Nc1cccnc1 (single isomer, unassigned; (-)) [Example 90, (−) 4-chloro-N-(1-{[(cyanoimino)(3-pyridinylamino)methyl]amino}-2,2-dimethyl-4-pentenyl)benzamide]",0.420,,,44,55
,30000,86,,,"CCC(CC)(CCC#N)C(NC(=O)c1ccc(Cl)cc1)NC(=NC#N)Nc1cccnc1 (single isomer, unassigned; (-)) [Example 86, (−) 4-chloro-N-(4-cyano-1-{[(cyanoimino)(3-pyridinylamino)methyl]amino}-2,2-diethylbutyl)benzamide]",0.01,19,83,,
,,,33000,1100,"CC(C)(C)OC(=O)N1CCC[C@@H]1[C@@H](NC(=O)c1ccc(Cl)cc1)NC(=NC#N)Nc1cccnc1 [Example 98, Tert-butyl (2R)-2-((R)-[(4-chlorobenzoyl)amino]{[(cyanoimino)(3-pyridinylamino)methyl]amino}methyl)-1-pyrrolidinecarboxylate]",0.004,,,30,62
,,,9000,890,"Cc1ccc(C(=O)NC(NC(=S)Nc2ccc(F)cc2)C(F)(F)F)cc1 (centres unmarked) [Example 3, 4-methyl-N-(2,2,2-trifluoro-1-{[(4-fluoroanilino)carbothioyl]amino}ethyl)benzamide]",0.012,,,97,79
,,,14000,300,"Cc1ccc(C(=O)NC(NC(=S)Nc2cc(F)ccc2F)C(F)(F)F)cc1 (centres unmarked) [Example 14, N-(1-{[(2,5-difluoroanilino)carbothioyl]amino}-2,2,2-trifluoroethyl)-4-methylbenzamide]",0.027,,,96,110
,9300,,,110,"CC(C)(C)CC(NC(=O)c1ccc(Cl)cc1)NC(=N[N+](=O)[O-])Nc1cccnc1 (centres unmarked) [Example 124, 4-chloro-N-(1-{[(nitroimino)(3-pyridinylamino)methyl]amino}-3,3-dimethylbutyl)benzamide]",0.012,47,,,98
